Where “and” joins values, the source holds several entries; their conditions need not be identical. Identical values can stand only once.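 Five concentrations, 48 hours, 96-well plates. GI50 marks 50% less growth. At the TGI there is no net growth.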
Columns and labels:
Assay in all cases: NCI-60 cell line screen, 48 h
NCI-H226 lung = tested on: NCI-H226 lung
NCI-H460 lung = tested on: NCI-H460 lung
HT29 colon = tested on: HT29 colon
MOLT-4 leukemia = tested on: MOLT-4 leukemia
SF-539 CNS = tested on: SF-539 CNS
KM12 colon = tested on: KM12 colon
K-562 leukemia = tested on: K-562 leukemia
M14 melanoma = tested on: M14 melanoma
IGROV1 ovarian = tested on: IGROV1 ovarian
PC-3 prostate = tested on: PC-3 prostate

Structure (SMILES) | TGI (NCI-H226 lung) [µM] | TGI (NCI-H460 lung) | TGI (HT29 colon) [µM] | TGI (MOLT-4 leukemia) [µM] | TGI (SF-539 CNS) | TGI (KM12 colon) | TGI (K-562 leukemia) [µM] | TGI (M14 melanoma) [µM] | TGI (IGROV1 ovarian) [µM] | GI50 (IGROV1 ovarian) [µM] | GI50 (NCI-H226 lung) [µM] | GI50 (NCI-H460 lung) [µM] | GI50 (PC-3 prostate) | TGI (PC-3 prostate) | GI50 (HT29 colon) [µM] | GI50 (MOLT-4 leukemia) [µM] | GI50 (SF-539 CNS) [µM] | GI50 (K-562 leukemia) [µM] | GI50 (M14 melanoma) [µM] | GI50 (KM12 colon) [µM]
CN(C)CCNC(=O)c1cccc2nc3ccc4cccnc4c3nc12 | 1.83 | 1.01 µM | 4.88 | 0.763 | 1.1 µM | 3.54 µM | 13.4 | 3.03 | – | – | – | – | – | – | – | – | – | – | – | –
COC1=CC(=O)C(Br)=CC1=O | – | > 100 µM | 35.6 | 10.4 | – | – | 9.1 | 33.5 | 31.1 | – | – | – | – | – | – | – | – | – | – | –
COC1=CC(=O)C2C(C1=O)[C@@H]1c3ccccc3OC(C)(C)[C@H]21 (stereo partly drawn) | 54.7 | > 100 µM | 99.4 | 41.2 | 58.3 µM | > 100 µM | 38.1 | 33.8 | – | – | – | – | – | – | – | – | – | – | – | –
Cc1cc(C)nc(NS(=O)(=O)c2ccc(Nc3c4ccccc4nc4c(C(=O)Nc5ccc(S(=O)(=O)Nc6cc(C)on6)cc5)ccc(Cl)c34)cc2)n1 | – | 61.3 µM | 47.8 | 49.1 | 53 µM | 37.1 µM | > 100 | 44 | – | – | – | – | – | – | – | – | – | – | – | –
CCC#CC[C@H](O)C/C=C1/C(=O)C=C[C@@H]1C/C=C\CCCC(=O)OC | 1.9 | 3.55 µM | 2.46 | 7.17 | 3.79 µM | – | 50 | 5.12 | 7.84 | 1.93 | 0.863 | 1.31 | 1.42 µM | 5.25 µM | 0.991 | 0.78 | 1.31 | 1.13 | 1.32 | –
COc1ccc2c3c(c(C(=O)O)oc13)CCC2 | 83 | > 100 µM | > 100 | > 100 | > 100 µM | > 100 µM | > 100 | > 100 | > 100 | – | – | – | – | – | – | – | – | – | – | –
CCCN(CCC)CCc1cc(C(C)=O)n(S(=O)(=O)c2ccc(C)cc2)c1 | > 100 | > 100 µM | > 100 | > 100 | > 100 µM | > 100 µM | > 100 | 40.2 | > 100 | – | – | – | – | – | – | – | – | – | – | –
CC/C=C\C[C@H](O)C/C=C1/C(=O)C=C[C@@H]1C/C=C\CCCC(=O)OC(C)C | 6.08 | 3.97 µM | 3.21 | 6.36 | – | 3.08 µM | 20.7 | 3.17 | 7.75 | 2.43 | 2.58 | 1.68 | 1.58 µM | 3.49 µM | 1.65 | 1.24 | – | 0.391 | 0.79 | 1.36
O=C1NC(=O)C(=Cc2c3ccccc3cc3ccccc23)C(=O)N1 | – | > 100 µM | > 100 | > 100 | > 100 µM | – | > 100 | > 100 | > 100 | – | – | – | – | – | – | – | – | – | – | –
O=S(=O)(c1ccccc1)c1nccs1 | > 100 | > 100 µM | > 100 | > 100 | > 100 µM | > 100 µM | > 100 | > 100 | > 100 | – | – | – | – | – | – | – | – | – | – | –
COc1cc2c(c(O)c1C)C(=O)CC(c1ccccc1)O2 (stereo not drawn) | 41.5 | > 10 µM | > 10 | > 100 | > 100 µM | > 100 µM | > 100 | > 10 | > 100 | – | – | – | – | – | – | – | – | – | – | –
Cc1cc(Br)cc(C)c1NC(=O)C(=O)C(C(=O)c1ccncc1)C1OC(=O)c2ccccc21 (stereo not drawn) | > 100 | > 100 µM | – | > 100 | – | > 100 µM | > 100 | > 100 | > 100 | – | – | – | – | – | – | – | – | – | – | –
COc1cccc2c1C(=O)c1c(O)c3c(c(O)c1C2=O)C[C@@](O)(C(C)=O)C[C@@H]3OC1CC([N+]([O-])(Cc2ccccc2)Cc2ccccc2)C(O)C(C)O1 (stereo partly drawn) | – | 2.39 µM | 3.14 | – | 2.62 µM | 2.9 µM | – | 3.07 | 4.82 | – | – | – | – | – | – | – | – | – | – | –
O=C(O)C(Br)C(Br)C(=O)O (stereo not drawn) | > 100 | > 100 µM | > 100 | – | > 100 µM | > 100 µM | > 100 | > 100 | > 100 | – | – | – | – | > 100 µM | – | – | – | – | – | –
O=c1nc(NC(c2ccccc2)(c2ccccc2)c2ccccc2)ccn1CCCl | 42.8 | 36.4 µM | 35 | 42.3 | 31.7 µM | 31.2 µM | 63.3 | – | 48.1 | – | – | – | – | – | – | – | – | – | – | –
CC(=O)O[C@@]12CO[C@@H]1C[C@H](O)[C@@]1(C)C(=O)[C@H](O)C3=C(C)[C@@H](OC(=O)[C@H](O)[C@@H](NC(=O)OC(C)(C)C)c4ccccc4)C[C@@](O)([C@@H](OC(=O)c4ccccc4)C12)C3(C)C (stereo partly drawn) | > 100 | 20.1 µM and > 100 µM | 41.7 | 52.6 | 19.3 µM and 22.9 µM | 50 µM and 27.7 µM | 50 | – | > 100 | 0.0357 | 12.8 | < 0.005 | < 0.005 µM and 0.0218 µM | 50 µM and 80.8 µM | < 0.005 | 0.0194 | < 0.005 | < 0.005 | – | < 0.005
Cc1c(NC(=O)CCl)c(=O)oc2c(C)c3occc(=O)c3cc12 | – | 27.5 µM | 35.3 | 17.9 | – | 23.9 µM | 52 | 26 | 31.2 | – | – | – | – | – | – | – | – | – | – | –
CC(N)Cc1ccc(Cl)cc1 (stereo not drawn) | > 100 | > 100 µM | > 100 | > 100 | > 100 µM | > 100 µM | > 100 | > 100 | > 100 | – | – | – | – | – | – | – | – | – | – | –
CCOc1cc(C(=O)O)c2c(ccc3ccc(OC)c(OC)c32)c1OC | > 100 | > 100 µM | > 100 | > 100 | – | > 100 µM | > 100 | > 100 | > 100 | – | – | – | – | > 100 µM | – | – | – | – | – | –
CCO/C(CCn1[nH]c(=O)c(Cl)c(Cl)c1=O)=N\NC(=O)C(=O)NN | > 100 | > 100 µM | > 100 | > 100 | > 100 µM | > 100 µM | > 100 | > 100 | > 100 | – | – | – | – | – | – | – | – | – | – | –
COC12C=C/C(=C(/C(=O)OCCSc3ccnn3C)C(=O)CCCCCCCCC3(OC)C=C/C(=C(/C(=O)OCCSc4ccnn4C)C(=O)CCCCCCCC1)O3)O2 | 1.76 | 3.76 µM | > 32.5 | – | 5.24 µM | 2.1 µM | 18 | 2.4 | > 32.5 | 1.46 | 0.827 | 1.07 | 1.51 µM | > 32.5 µM | 1.25 | – | 1.16 | 1.05 | 0.873 | 0.813
